d = 2'-deoxy (DNA)

For series [1], the system named is HPDE cells. Description: BrdU incorporation cell proliferation assay. The class given is cell-based, human. As to conditions: inhibitor 20 μM, 24 h. As to the method:
(§1) To assess cell proliferation and apoptosis, cells were plated in duplicates on a 96-well plate and incubated in 100 μl of the cell line appropriate media described above. Cells were transfected with siRNA soon after complete attachment (approx. 3 h after seeding). Cells were treated with vehicle, 20 μM gemcitabine, 20 μM T16Ainh-A01, or 10 μM free NS3728 (see below) after culture in a humidified 37 °C and 5 % CO2 incubator overnight. BrdU incorporation was measured using Cell Proliferation ELISA, BrdU (chemiluminescent) (Roche Diagnostics A/S, Denmark) following the manufacturer’s instructions. Caspases 3, 6, and 7 activation was evaluated using Homogeneous Caspases Assay (fluorimetric) (Roche Diagnostics A/S, Denmark).
(§2) Fig. 7 VRAC, but not ANO1, regulates cellular proliferation. a Summary of BrdU incorporation in HPDE, Capan-1, AsPC-1, and BxPC-3 cells after various treatments as indicated. Cells were transfected shortly after complete attachment (approx. 3 h) and BrdU incorporation was assessed 36 h after transfection. To investigate effect of inhibitors, cells were incubated for 24 h with respective inhibitor. Values shown are relative to appropriate control. Data shown represents mean ± s.e.m. of n = 4–6 individual experiments. **p ≤ 0.01 and ***p ≤ 0.001 when compared with control
A general note: Incorporation of labelled thymidine or its analogues reports DNA synthesis.

For series [2], the system named is HPDE, Capan-1, AsPC-1 and BxPC-3 cells. Description: Homogeneous caspases assay after gemcitabine treatment. The class given is cell-based, human. As to conditions: T16Ainh-A01, 24 h. As to the method: as §1, with “Denmark). […]” for “Denmark).”
Series [3] deals with CFPAC-1. Also on record: method as in Mazzone et al. [23]. The following applies: CFPAC-1, 10 μM, ref Mazzone et al. [23]; cited from earlier work.
Series [4] relates to bronchial epithelial cells. On the set-up: method as in Scudieri et al. [39]. The following applies: ref Scudieri et al. [39], cited from earlier work.
For series [5], the system named is ANO1. The series is described as follows: Western blot of ANO1 protein expression after siRNA knockdown. The class given is cell-based, human. As to conditions: 36 h after transfection, β-actin loading control. Here is the method: DharmaFECT 1 Transfection Reagent (Thermo Scientific, Germany) was used for transfection of siRNA targeting ANO1 (50 nM final concentration) or scrambled (5 nM final concentration). Cells were transfected according to the manufacturer’s protocol. Predesigned siRNA oligo was obtained from Sigma-Aldrich (5′-[…][dT][dT]-3′, 5′-[…][dT][dT]-3′) or negative control (Silencer® Negative Control No. 1 siRNA; Ambion, Denmark). ANO1 overexpressing HEK293 cells were generated by adding 0.5 μg/ml mANO1-GFP vector to DMEM containing 1 % v/v penicillin and streptomycin. The mixture was vortexed and incubated for 5 min, and 20 μg/ml polyethylenimine (PEI) was added. The mixture was vortexed again and added drop-wise to 60 % confluent HEK293 cells in DMEM medium containing 5 % v/v FBS and 1 % v/v penicillin and streptomycin after 10 min incubation at room temperature. Media was changed after 4 h incubation at 37 °C and 5 % CO2.
Protein was isolated from cells 36 h after transfection with siRNA targeting ANO1, in a lysis buffer containing (in mM): 10 Tris–HCl, 10 EDTA, 1 % sodium dodecyl sulfate (SDS), 0.5 % sodium deoxycholate, and 1 % complete protease inhibitor mixture (Roche, Denmark), pH 7.4, and was separated by 7 % SDS-PAGE. Protein was subsequently transferred to nitrocellulose membrane (Novex, Denmark). […]
Fig. 3 ANO1 is the major contributor of CaCC currents in PDAC cells and is sensitive to Cl^− channel inhibitors and siRNA. Whole-cell patch-clamp recordings with 1 μM Ca^2+ in pipette solution. a Representative current traces measured in Capan-1 cells upon exposure to different inhibitors. b Quantification of CaCC currents at +67 mV recorded with inhibitors compared to currents in presence of DMSO; currents of siANO1 cells were compared to those of MOCK transfected cells. c Steady-state I–V relationships of cells transfected with either scrambled siRNA (MOCK) or siRNA targeting ANO1. d Densitometric quantification of Western blot analysis of siRNA knockdown. β-Actin was used as a loading control. […]
A general note: In western blotting, separated proteins are transferred to a membrane and probed.

Series [6] relates to Capan-1 cells. Description: BrdU incorporation cell proliferation assay. The class given is cell-based, human. The following applies: Capan-1, inhibitor 20 μM, 24 h. Here is the method: as §1, §2

Turning to `CCc1c(C)nc(SCC(=O)Nc2nc(-c3ccc(OC)cc3)cs2)[nH]c1=O` [T16Ainh-A01, 2-[(5-Ethyl-1,6-dihydro-4-methyl-6-oxo-2-pyrimidinyl)thio]-N-[4-(4-methoxyphenyl)-2-thiazolyl]acetamide], the “proliferation (BrdU incorporation)” value in series [1] is “showed inhibited proliferation”. Further, the “protection from apoptosis (Caspase-3 activity)” value in series [2] was “less pronounced”. In addition, in series [3], the proliferation result is “decrease in proliferation”. Moreover, in series [4] (10 μM), the “inhibition of Ca2+-activated Cl− secretion” value is on record as “relatively weak inhibition”. In series [4] (cells prior exposed to 10 μM), the “UTP-induced Cl− secretion in short-circuit current recordings” value is “significantly attenuated”.

For the molecule “siRNA targeting ANO1: Predesigned siRNA oligo from Sigma-Aldrich, 5′-CCUUCAACGUCAGUGACUU[dT][dT]-3′, 5′-AAGUCACUGACGUUGAAGG[dT][dT]-3′ (RNA, 3' dTdT, backbone not given here)”, the “ANO1 protein expression decreased to” value in series [5] (AsPC-1 cells) turned out to be 54 ± 14%; in series [5] (BxPC-3 cells), 20 ± 7%; in series [5] (Capan-1 cells), 37 ± 8%.

`CC(C)(C)C1CCc2c(sc(NC(=O)c3ccco3)c2C(=O)O)C1` (stereo not drawn) [CaCCinh-A01, 6-(1,1-dimethylethyl)-2-[(2-furanylcarbonyl)amino]-4,5,6,7-tetrahydrobenzo[b]thiophene-3-carboxylic acid]: the “proliferation (BrdU incorporation)” value in series [6] was “decreased proliferation in Capan-1 slightly”.

(Values after publication PMC4464647, “ANO1 (TMEM16A) in pancreatic ductal adenocarcinoma (PDAC)” (Pflugers Archiv, 2014).)
